# Experimental data published in patent US10294488B2, “Herbicide-metabolizing cytochrome P450 monooxygenases” (BASF SE, priority 2012, dated 2019).
# Columns and labels:
# AmCYP03_1 (Seq ID 4) = experiment: Herbicide degradation in transgenic yeast cells expressing cytochrome P450 AmCYP03_1; format: in vitro ADME, Alopecurus myosuroides; conditions: transgenic yeast cells (S. cerevisiae BJ5459) expressing AmCYP03_1, Seq ID 4, recovery of herbicide in reference to control, UPLC-MS/MS
# Source text: (§1) The cDNA of CYP450 monooxygenase genes were synthesized with an optimized codon usage for yeast, cloned via uniqueBamHI-SalI restriction sites in the low copy pESC-ura expression vector (Agilent Technologies). Constructs were transformed into S. cerevisiae wild type strain BJ5459 (MATa ura3-5 trp lys2-801 leu2Δ1 his3Δ200 pep4Δ::HIS3 prb1Δ1.6R can1 GAL cir^+; ATCC 208284) using a Yeast Maker Transformation System from Clontech and verified by colony PCR. Positive clones were selected on minimal synthetic-defined media (SD) supplemented with appropriate dropout solution. The strain had no obvious phenotypes. Cells were induced in SG-Ura medium (same composition as SD but with galactose instead of glucose) for 24 h (Pompon et al., Methods in Enzymology 272:51-64 (1996); Urban et al., Eur. J. Biochem. 222:[…] (1994)). Optimal heterologous protein expression was assayed using Western Blot analysis.
# (§2) 96 deep well growth plates (STARLAB GmbH) charged with 700 μL SDA medium are inoculated with the respective yeast strains from cryostock and incubated at 30° C., 400 rpm. After 48 h, an aliquot is transferred into a new plate with fresh SDA medium 400 rpm. After 4 h the cultures are spun down, the supernatant discarded and the pellets resuspended in 700 μL pre-warmed SGA media to induce protein expression at 30° C. and 400 rpm. After an incubation time of 24 h, 7 μL herbicide solution (500 μM DMSO stock solution) or solvent control is added to the yeast culture incubated for additional 24 h. The herbicide conversion is stopped by adding 700 μL acetonitrile followed by ultrasonification. The homogenate is prepared for UPLC-MS/MS analysis. The degradation rate was calculated by the determination of the recovery of the herbicide in reference to the control.
# AmCYP03b (Seq ID 6) = experiment: Herbicide degradation in transgenic yeast cells expressing cytochrome P450 AmCYP03b; format: in vitro ADME, Alopecurus myosuroides; conditions: transgenic yeast cells (S. cerevisiae BJ5459) expressing AmCYP03b, recovery of herbicide in reference to control, UPLC-MS/MS
# Source text: as §1, §2
# AmCYP04 (Seq ID 27) = experiment: Herbicide degradation in transgenic yeast cells expressing cytochrome P450 AmCYP04; format: in vitro ADME, Alopecurus myosuroides; conditions: transgenic yeast cells (S. cerevisiae BJ5459) expressing AmCYP04, Seq ID 27, recovery of herbicide in reference to control, UPLC-MS/MS
# Source text: as §1, §2
# AmCYP12_1 (Seq ID 45) = experiment: Herbicide degradation in transgenic yeast cells expressing cytochrome P450 AmCYP12_1; format: in vitro ADME, Alopecurus myosuroides; conditions: transgenic yeast cells (S. cerevisiae BJ5459) expressing AmCYP12_1, Seq ID 45, recovery of herbicide in reference to control, UPLC-MS/MS
# Source text: as §1, §2
# AmCYP01 (Seq ID 2) = experiment: Herbicide degradation in transgenic yeast cells expressing cytochrome P450 AmCYP01; format: in vitro ADME, Alopecurus myosuroides; conditions: transgenic yeast cells (S. cerevisiae BJ5459) expressing AmCYP01, Seq ID 2, recovery of herbicide in reference to control, UPLC-MS/MS
# Source text: as §1, §2
# [1] = tested on: transgenic plants expressing Am_CYP03 (SEQ ID 4); experiment: Greenhouse herbicide tolerance of transgenic plants expressing Am_CYP03 (FIG. 1); format: in vivo, Arabidopsis thaliana; conditions: plants expressing Am_CYP03 (SEQ ID 4) vs wildtype, different application rates (g/ha)
# Protocol: (§3) Transgenic Arabidopsis thaliana plants were assayed for improved tolerance to saflufenacil, 1,5-dimethyl-6-thioxo-3-(2,2,7-trifluoro-3-oxo-4-(prop-2-ynyl)-3,4-dihydro-2H-benzo[b][1,4]oxazin-6-yl)-1,3,5-triazinane-2,4-dione (CAS 1258836-72-4), chlorotoluron, pendimethalin, flumioxazin, butafenacil, acifluorfen, lactofen, bifenox, diuron, sulfentrazon, tepraloxydim, coumarone-derivative herbicides, azine-derivative herbicides in 48-well plates. Therefore, T2 seeds are surface sterilized by stirring for 5 min in ethanol+water (70+30 by volume), rinsing one time with ethanol+water (70+30 by volume) and two times with sterile, deionized water. The seeds are resuspended in 0.1% agar dissolved in water (w/v) Four to five seeds per well are plated on solid nutrient medium consisting of half-strength murashige skoog nutrient solution, pH 5.8 (Murashige and Skoog (1962) Physiologia Plantarum 15: 473-497). Compounds are dissolved in dimethylsulfoxid (DMSO) and added to the medium prior solidification (final DMSO concentration 0.1%). Multi well plates are incubated in a growth chamber at 22° C., 75% relative humidity and 110 μmol Phot*m^2*s^−1 with 14:10 h light: dark photoperiod. Growth inhibition is evaluated seven to ten days after seeding in comparison to wild type plants. Additionally, transgenic T1 Arabidopsis plants were tested for improved tolerance to herbicides in greenhouse studies with the following herbicides: saflufenacil, 1,5-dimethyl-6-thioxo-3-(2,2,7-trifluoro-3-oxo-4-(prop-2-ynyl)-3,4-dihydro-2H-benzo[b][1,4]oxazin-6-yl)-1,3,5-triazinane-2,4-dione (CAS 1258836-72-4), chlorotoluron, pendimethalin, flumioxazin, butafenacil, acifluorfen, lactofen, bifenox, diuron, sulfentrazone, tepraloxydim, coumarone-derivative herbicides, azine-derivative herbicides.
# [2] = tested on: transgenic plants expressing Am_CYP04 (SEQ ID 27); experiment: Greenhouse herbicide tolerance of transgenic plants expressing Am_CYP04 (FIG. 2); format: in vivo, Arabidopsis thaliana; conditions: plants expressing Am_CYP04 (SEQ ID 27) vs wildtype, different application rates (g/ha)
# Protocol: as §3
Structure (SMILES),Degradation rate of listed herbicidal compounds within 24 h (AmCYP03_1 (Seq ID 4)),Degradation rate of listed herbicidal compounds within 24 h (AmCYP03b (Seq ID 6)),Degradation rate of listed herbicidal compounds within 24 h (AmCYP04 (Seq ID 27)),Degradation rate of listed herbicidal compounds within 24 h (AmCYP12_1 (Seq ID 45)),Degradation rate of listed herbicidal compounds within 24 h (AmCYP01 (Seq ID 2)),Phenotype (injury) of transgenic plants compared to non-transgenic plants [1],Phenotype (injury) of transgenic plants compared to non-transgenic plants [2]
"Cc1ccc(NC(=O)N(C)C)cc1Cl [Chlorotoluron, reference compound]",32,29,26,22,18,much less injured,much less injured
"CC(C)N(C)S(=O)(=O)NC(=O)c1cc(-n2c(=O)cc(C(F)(F)F)n(C)c2=O)c(F)cc1Cl [saflufenacil, reference compound]",10,9,18,20,20,much less injured,much less injured
